These results are taken from patent US8293682B2, “Growth regulators for gramineous weeds” (Rikengreen Co., Ltd., priority 2008, dated 2012).

Experiment [1] has as its system annual bluegrass (Poa annua L.). Nature of the experiment: Test Example 1: number of ear emergence, poly-cup, single or mixed application. It counts as in vivo. How it is done: At the initial stage of the ear emergence of annual bluegrass (Poa annua L.) grown in a poly-cup of 11 cm×11 cm, benzyladenine (Beanine for painting; made by Rikengreen; containing 1% benzyladenine) and ethephon (Ethrel 10 soluble concentrate; Nissan Chemical Industries; containing 10% ethephon) respectively as a single active ingredient or a mixture of them were diluted in a predetermined amount of water and applied by atomization so as to be a dose as indicated in Table. The application was carried out using 100 mL/m^2 of the solution to which a spreader (Riken Sprayzer (registered trade mark); made by Rikengreen) was added so as to be 1/1,000 fold. Inspection was made on Days 21, 32 and 45 after treatment with the agents to count the number of ear emergence in the cup. After completion of each inspection, clipping was performed.

Experiment [2] has the same test system. Conditions: cited from earlier work.

For the molecule `c1ccc(CNc2ncnc3nc[nH]c23)cc1` [Benzyladenine, 6-benzylaminopurine], the “number of ear emergence in the cup” value is given as 39 in experiment [1] (21 Days after Application, Benzyladenine 2, Ethephon 0 mg a.i./m^2); 26 in experiment [1] (21 Days after Application, Benzyladenine 4, Ethephon 0 mg a.i./m^2); 36 in experiment [1] (21 Days after Application, Benzyladenine 8, Ethephon 0 mg a.i./m^2); 16 in experiment [1] (21 Days after Application, Benzyladenine 12, Ethephon 0 mg a.i./m^2); 11 in experiment [1] (21 Days after Application, Benzyladenine 16, Ethephon 0 mg a.i./m^2); 50 in experiment [1] (32 Days after Application, Benzyladenine 2, Ethephon 0 mg a.i./m^2). Moreover, the “number of ear emergence in the cup” value came out at 34 in experiment [1] (32 Days after Application, Benzyladenine 4, Ethephon 0 mg a.i./m^2); 10 in experiment [1] (32 Days after Application, Benzyladenine 8, Ethephon 0 mg a.i./m^2); 9 in experiment [1] (32 Days after Application, Benzyladenine 12, Ethephon 0 mg a.i./m^2); 6 in experiment [1] (32 Days after Application, Benzyladenine 16, Ethephon 0 mg a.i./m^2); 71 in experiment [1] (45 Days after Application, Benzyladenine 2, Ethephon 0 mg a.i./m^2); 71 in experiment [1] (45 Days after Application, Benzyladenine 4, Ethephon 0 mg a.i./m^2). In addition, the “number of ear emergence in the cup” value came to 67 in experiment [1] (45 Days after Application, Benzyladenine 8, Ethephon 0 mg a.i./m^2); 55 in experiment [1] (45 Days after Application, Benzyladenine 12, Ethephon 0 mg a.i./m^2); 45 in experiment [1] (45 Days after Application, Benzyladenine 16, Ethephon 0 mg a.i./m^2). In addition, in experiment [1] (Test Example 1, Tables 1-3), the “inhibition of ear emergence (summary in words)” value is recorded as “effective in inhibiting the ear emergence”.

For `O=P(O)(O)CCCl` [Ethephon, 2-chloroethylphosphonic acid], the “growth of annual bluegrass growing among Kentucky bluegrass” value in experiment [2] (Non-patent document 3, dose of 3.2 kg/hectare) is given as “slowed growth”. The “ear emergence of annual bluegrass growing among bent grass” value in experiment [2] (Non-patent document 4, 3.8-7.6 kg/hectare) is “inhibits the ear emergence”. Also, the “number of ear emergence in the cup” value in experiment [1] (21 Days after Application, Benzyladenine 0, Ethephon 40 mg a.i./m^2) came out at 43; in experiment [1] (21 Days after Application, Benzyladenine 0, Ethephon 80 mg a.i./m^2) it was 47; in experiment [1] (21 Days after Application, Benzyladenine 0, Ethephon 160 mg a.i./m^2), 28; in experiment [1] (21 Days after Application, Benzyladenine 0, Ethephon 240 mg a.i./m^2), 29; in experiment [1] (21 Days after Application, Benzyladenine 0, Ethephon 320 mg a.i./m^2), 19; in experiment [1] (32 Days after Application, Benzyladenine 0, Ethephon 40 mg a.i./m^2), 38. For the same molecule, the “number of ear emergence in the cup” value is 41 in experiment [1] (32 Days after Application, Benzyladenine 0, Ethephon 80 mg a.i./m^2); 32 in experiment [1] (32 Days after Application, Benzyladenine 0, Ethephon 160 mg a.i./m^2); 19 in experiment [1] (32 Days after Application, Benzyladenine 0, Ethephon 240 mg a.i./m^2); 15 in experiment [1] (32 Days after Application, Benzyladenine 0, Ethephon 320 mg a.i./m^2); 54 in experiment [1] (45 Days after Application, Benzyladenine 0, Ethephon 40 mg a.i./m^2); 51 in experiment [1] (45 Days after Application, Benzyladenine 0, Ethephon 80 mg a.i./m^2). The “number of ear emergence in the cup” value in experiment [1] (45 Days after Application, Benzyladenine 0, Ethephon 160 mg a.i./m^2) came to 38; in experiment [1] (45 Days after Application, Benzyladenine 0, Ethephon 240 mg a.i./m^2), 39; in experiment [1] (45 Days after Application, Benzyladenine 0, Ethephon 320 mg a.i./m^2), 36.
